Tests used:
[1] = target: T1, Aβ 1-42 (Homo sapiens, UniProt P05067); assay: Fluorometric H2O2 assay (inhibition of Abeta H2O2 production); assay type: biochemical; conditions: concentration required to inhibit 50% of Abeta H2O2 production; read-out: H2O2 IC50
T1 construct: The reaction solutions contained Aβ 1-42 at concentrations
Procedure: Assay 1. Fluorometric H2O2 Assay
A fluorometric assay was used to test the ability of a test compound to inhibit hydrogen peroxide generation by Aβ in the presence of copper based on dichlorofluoroscein diacetate (DCF; Molecular Probes, Eugene Oreg.). The DCF solution (5 mM) in 100% dimethyl sulphoxide (previously purged with argon for 2 hr at 20° C.) was deacetylated in the presence of 0.25M NaOH for 30 min and neutralized at pH 7.4 to a final concentration of 1 mM. Horseradish peroxidase (HRP) stock solution was prepared to 1 μM at pH 7.4. The reactions were carried out in PBS, pH 7.4 in a 96 well plate (total volume=250 μl/well). […] The reaction mixture was incubated at 37 C for 60 min. […] H2O2 concentration may be established by comparing fluorescence with the H2O2 standards, Inhibition of Aβ H2O2 production was assayed by including a given concentration of test compound(s) in the test wells.

[2] = target: T2, Abeta:Zn (25:50 μM) Synthetic Aggregations (Homo sapiens, UniProt P05067); assay: Disaggregation of Abeta:Zn synthetic aggregates (ThT fluorescence); assay type: biochemical; conditions: for Disaggregation % Aggregate reduction at 5 μM: 5 μM test compound; for EC50: Abeta:Zn 25:50 μM aggregates
T2 construct: PB Compound Mediated Dissolution of Aggregated Abeta 1-42; purchased Keck Laboratory, Yale University School of Medicine
Procedure: PB Compound Mediated Dissolution of Aggregated Abeta 1-42
Abeta1-42, is available from the Keck Laboratory, Yale University School of Medicine. PBS (pH 6.6): Sigma Cat# D-8662. Zn(ZnCl2): BDH Cat#100884E. (Dissolved in water in 1 mM concentration) DMSO: Ajax Cat#2225. Thioflavin T: Sigma Cat# T-3516. (Dissolved in water in 1 mM concentration)
By way of example of an amyloid composition, Abeta is dissolved in distilled water and peptide concentration is assessed by measured absorption at 214 nm in UV spectrometer. An aggregation reactive mixture (per one concentration of one testing compound) is set us as follows: Abeta: 25 μM, ZnCl2 50 μM, ThT 50 μM, PBS to make up to 500 μl. The tube is wrapped with foil and incubated at 37 degrees by rotation for 24 hours. A serial dilution of each test compound is made up in DMSO, for example: 100 μM, 500 μM, 1000 μM, 2500 μM and 5000 μM. The final concentrations are 1, 5, 10, 25 and 50 μM, 5 μl of each of these compounds is placed in a centrifuge tube and 5 μl of DMSO is added to both negative and positive control tubes. 495 μl of aggregates (after 24 hours incubation) is added to the centrifuge tube. The negative control is PBS plus ZnCl2 and ThT and DMSO. The positive control is aggregates plus DMSO. The tubes are incubated at 37 degrees for further 2 hours with rotation. Samples are measured for ThT fluorescence using an LS55 (Perkin Elmer) fluorimeter in a cuvette (500 μl volume). The excitation wavelength is 450 nm and the emission wavelength is 480 nm. Data are analyzed using graph pad prism program. The tested compounds included so called “PB” compounds.

[3] = test system: primary cortical neuronal cultured cells; assay: Test compound cytotoxicity, MTS assay, primary cortical neuronal cultures; assay type: cell-based, mouse; conditions: for Cytotox (% viable) Neuronal cells at 1 μM: 1 μM test compound; for Cytotox (% viable) Neuronal cells at 10 μM: 10 μM test compound
Procedure: Assay 2. Neurotoxicity Assays
Primary Cortical Neuronal Cultures
Media was then replaced with Neurobasal media (Invitrogen Life Technologies) and B27 supplements (Invitrogen Life Technologies). Cultures were maintained at 37° C. in 5% CO2. Prior to experimentation, the culture medium was replaced with Neurobasal media and B27 minus antioxidants (Invitrogen Life Technologies).
(§1) Assay 3. MTS Assay for Cell Viability
(§2) Cell viability is determined using the MTS assay. Culture medium is replaced with fresh neurobasal medium plus B27 supplements minus antioxidants. 1/10th volume MTS solution (Cell Titre 96 Aqueous One, Promega Corporation) and incubated at 37° C., 2 hrs. 200 microliter aliquots are measured with a spectrophotometer at 560 nm.
Assay 4. Assay for Test Compound Cytoxicity
Neuronal cortical cells were cultured for five days as per Assay 2 in NB media and B27 supplement.
On day six the test compounds were added to the neuronal cell cultures in NB media and B27 supplement minus antioxidants.
Test compounds were dissolved in 100% DMSO to a concentration of 2.5 mM (10 mM if excess compound was weighed out per vial—then diluted to 2.5 mM).
Test compounds were not added directly to cells, instead they were added to a 48 well ‘Drug Plate’ as comprised below:
The Drug Plate was incubated at 37° C. for 15 mins. 200 μl of each well was added in triplicate to the corresponding cell plate. The cell plate was incubated at 37 C, for 4 days.
On completion of the assay, 1/10 volume MTS was added per well of plate (ie 25 μl/250 μl). The plates were incubated at 37 C for 2 hrs, and then absorbance was read at 560 nm.

[4] = test system: M17 human neuroblastoma cells; assay: Cytotoxicity, M17 human neuroblastoma cells; assay type: cell-based; conditions: for Cytotox (% viable) M17 cells at 1 μM: 1 μM test compound; for Cytotox (% viable) M17 cells at 10 μM: 10 μM test compound
Procedure: as §1, §2

T2 sequence (P05067 672-713 limits assumed): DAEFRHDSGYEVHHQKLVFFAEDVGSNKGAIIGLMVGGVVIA
T1 sequence (P05067 672-713 limits assumed): as above

SMILES | IC50 [1] [µM] | Disaggregation % Aggregate reduction at 5 μM [2] [%] | EC50 [2] [µM] | Cytotox (% viable) Neuronal cells at 1 μM [3] [%] | Cytotox (% viable) Neuronal cells at 10 μM [3] [%] | Cytotox (% viable) M17 cells at 1 μM [4] [%] | Cytotox (% viable) M17 cells at 10 μM [4] [%]
O=S(=O)(O)c1ccc(-c2ccnc3c2ccc2c(-c4ccc(S(=O)(=O)O)cc4)ccnc23)cc1 [PB 68] | > 10 | 44 | 8.5 | – | – | – | –
CN(C)c1ccc(-c2cc(Cl)c3cccnc3c2O)cc1 [PB 851] | – | – | – | 94 | 85 | – | –
c1ccc(-c2ccccn2)nc1 [PB 898] | 0.23 | 32 | > 20 | – | – | – | –
Br.CC(Br)CCn1cnc2c(O)c(Cl)cc(Cl)c2c1=O (stereo not drawn) [PB 1114] | – | 19.2 | > 20 | 101 | 73 | – | –
O=c1c2cccc(O)c2ncn1Cc1ccccn1 [PB 1117] | 0.72 | 57.3 | < 0.4 | – | – | 109.2 | 96
O=c1c2cccc(O)c2ncn1CC1CC1 [PB 1118] | 1.44 | 58 | < 0.4 | – | – | 106.8 | 88.6
CCc1cnc2c(O)cccn2c1=O [PB 1124] | 0.4 | 8.4 | > 20 | – | – | 96.1 | 27.1
Br.C/C=C/Cn1cnc2c(O)c(Cl)cc(Cl)c2c1=O [PB 1126] | – | 69 | 3.7 | – | – | – | –
O=c1c2c(Cl)ccc(O)c2ncn1CC1CC1 [PB 1132] | 0.47 | 16 | 15.2 | – | – | 86.3 | 57.6
O=c1c2c(Cl)ccc(O)c2ncn1Cc1ccccn1 [PB 1133] | 0.79 | 22 | > 20 | – | – | – | –
O=c1c2c(Cl)cc(I)c(O)c2ncn1Cc1ccccn1 [PB 1141] | 0.48 | 26 | 19.5 | – | – | 102.8 | 137
CCc1cnc2c(O)cccn2c1=S [PB 1143] | 0.48 | 62 | 4.1 | – | – | 93.3 | 73.7
O=C(NCc1ccc(F)cc1)c1cnc2c(O)cccn2c1=O [PB 1154] | 0.64 | 31 | > 20 | – | – | 76.7 | 54.2
O=c1c2ccc(I)c(O)c2ncn1Cc1cccc(Cn2cnc3c(O)c(I)ccc3c2=O)n1 [PB 1155] | 0.31 | 59 | 3.9 | – | – | – | –
O=c1c2cccc(O)c2ncn1-c1ccc(F)cc1 [PB 1156] | 0.96 | 22 | > 20 | – | – | 92.7 | 67.5
CCCCNC(=O)c1cnc2c(O)cccn2c1=O [PB 1159] | 0.68 | 49.9 | 5.06 | – | – | 115 | 41.1
O=c1c2ccc(I)c(O)c2ncn1-c1ccc(F)cc1 [PB 1162] | 3.2 | 52 | 4.7 | – | – | 93.9 | 36.5
CCN(CC)CCn1cnc2c(O)c(I)ccc2c1=O [PB 1163] | 0.29 | 43.3 | 11 | – | – | 106.5 | 41.4
O=c1c2c(Cl)cc(I)c(O)c2ncn1-c1cccnc1 [PB 1164] | 0.24 | 26 | > 20 | – | – | 112 | 111
CCCNC(=O)Cn1cnc2c(O)c(I)ccc2c1=O [PB 1166] | 0.43 | 21.7 | > 20 | – | – | 105 | 115.8
CCN(CC)C(=O)Cn1cnc2c(O)c(I)ccc2c1=O [PB 1167] | 0.39 | 39.3 | 7.4 | – | – | 92.2 | 98.7
CCn1cnc2c(O)c(I)cc(I)c2c1=O [PB 1169] | 0.31 | 64 | 1.44 | – | – | – | –
Oc1ccccc1-c1cn2ccccc2n1 [PB 1173] | > 20 | 10 | > 20 | – | – | – | –
Oc1cccc2sc(Cc3ccccc3)nc12 [PB 1191] | > 10 | 10 | 6.89 | – | – | – | –
COc1ccc(NCc2cccc3cccnc23)cc1 [PB 1194] | > 10 | 21.5 | > 20 | – | – | – | –
Fc1ccc(NCc2cccc3cccnc23)cc1 [PB 1195] | > 10 | 19.9 | > 20 | – | – | – | –

From patent US9163018B2, “Method of treatment of age-related macular degeneration (AMD)” (Prana Biotechnology Limited, priority 2006, dated 2015)
